The values below come from article PMC6282443 (Journal of Enzyme Inhibition and Medicinal Chemistry, 2018).

What all share (format): cell-based, human
The test system of one experiment is HepG2 cells. Put plainly: MTT anti-proliferative assay, HepG2. The note with it: Homo sapiens, HepG2, 72 h, read-out: Anti-proliferative activity IC50, HepG2. (Formazan colour is commonly taken as a measure of viable cells.)
The test system of a further experiment is A549 cells. The experiment in a line: cells. The note with it: Homo sapiens, A549, 72 h, read-out: Anti-proliferative activity IC50, A549.
Another experiment concerns MCF-7 cells. Put plainly: MTT anti-proliferative assay, MCF-7. The note with it: Homo sapiens, MCF7, 72 h, read-out: Anti-proliferative activity IC50, MCF-7.
The test system of the next experiment is H1975 cells. Particulars: H1975, MTT.

As to `COc1cc2ncnc(Nc3ccc(F)c(Cl)c3)c2cc1NC(=O)N/N=C/c1ccc(N(C)C)cc1` [Compound 9, (E)-N-(4-((3-chloro-4-fluorophenyl)amino)-7-methoxyquinazolin-6-yl)-2-(4-(dimethylamino)benzylidene)hydrazine-1-carboxamide], the IC50 was 0.72 ± 0.19 µM with HepG2 cells, 2.84 ± 0.22 µM in the experiment with A549 cells and 2.63 ± 0.16 µM with MCF-7 cells. In addition, the “inhibitory activity against H1975 cells (in words)” value with H1975 cells is listed as “poorer cellular activity”.

Consider `CCN(CC)c1ccc(/C=N/NC(=O)Nc2cc3c(Nc4ccc(F)c(Cl)c4)ncnc3cc2OC)cc1` [Compound 11, (E)-N-(4-((3-chloro-4-fluorophenyl)amino)-7-methoxyquinazolin-6-yl)-2-(4-(diethylamino)benzylidene)hydrazine-1-carboxamide], for which the values for the IC50 in the experiment on HepG2 cells, in the experiment on A549 cells and in the experiment on MCF-7 cells were 11.5 ± 1.16 µM, 31.4 ± 2.12 µM and 15.4 ± 1.14 µM, respectively.

Regarding `O=C(N/N=C/c1ccc(N2CCCC2)nc1)Nc1cc2c(Nc3ccc(F)c(Cl)c3)ncnc2cc1O[C@H]1CCOC1` [Compound 18, (S,E)-N-(4-((3-chloro-4-fluorophenyl)amino)-7-((tetrahydrofuran-3-yl)oxy)quinazolin-6-yl)-2-((6-(pyrrolidin-1-yl)pyridin-3-yl)methylene)hydrazine-1-carboxamide], the figures for the IC50 in the experiment on HepG2 cells, in the experiment with A549 cells and in the experiment on MCF-7 cells were 5.81 ± 0.61 µM, 19.2 ± 1.46 µM and 12.4 ± 1.25 µM, respectively.

For the compound `COc1cc2ncnc(Nc3ccc(F)c(Cl)c3)c2cc1NC(=O)N/N=C/c1ccc(CN2CCCCC2)cc1` [Compound 22, (E)-N-(4-((3-chloro-4-fluorophenyl)amino)-7-methoxyquinazolin-6-yl)-2-(4-(piperidin-1-ylmethyl)benzylidene)hydrazine-1-carboxamide], the IC50 in the experiment with HepG2 cells came to 59.5 ± 4.75 µM; in the experiment on A549 cells, 24.2 ± 2.27 µM; in the experiment on MCF-7 cells, 31.1 ± 2.55 µM.

For `COc1cc2ncnc(Nc3ccc(F)c(Cl)c3)c2cc1NC(=O)N/N=C/c1ccc(CN2CCOCC2)cc1` [Compound 23, (E)-N-(4-((3-chloro-4-fluorophenyl)amino)-7-methoxyquinazolin-6-yl)-2-(4-(morpholinomethyl)benzylidene)hydrazine-1-carboxamide], the IC50 with HepG2 cells, in the experiment on A549 cells and in the experiment on MCF-7 cells was > 100 µM in each case.

With `CCN(CC)Cc1ccc(/C=N/NC(=O)Nc2cc3c(Nc4ccc(F)c(Cl)c4)ncnc3cc2O[C@H]2CCOC2)cc1` [Compound 26, (S,E)-N-(4-((3-chloro-4-fluorophenyl)amino)-7-((tetrahydrofuran-3-yl)oxy)quinazolin-6-yl)-2-(4-((diethylamino)methyl)benzylidene)hydrazine-1-carboxamide], the IC50 with HepG2 cells turned out to be 53.6 ± 4.75 µM; with A549 cells it was 23.1 ± 1.54 µM; in the experiment on MCF-7 cells it was 36.9 ± 3.54 µM.

`O=C(N/N=C/c1ccc(CN2CCCC2)cc1)Nc1cc2c(Nc3ccc(F)c(Cl)c3)ncnc2cc1O[C@H]1CCOC1` [Compound 27, (S,E)-N-(4-((3-chloro-4-fluorophenyl)amino)-7-((tetrahydrofuran-3-yl)oxy)quinazolin-6-yl)-2-(4-(pyrrolidin-1-ylmethyl)benzylidene)hydrazine-1-carboxamide]: the IC50 in the experiment on HepG2 cells, in the experiment on A549 cells and in the experiment on MCF-7 cells was > 100 µM in each case.

`O=C(N/N=C/c1ccc(CN2CCCCC2)cc1)Nc1cc2c(Nc3ccc(F)c(Cl)c3)ncnc2cc1O[C@H]1CCOC1` [Compound 28, (S,E)-N-(4-((3-chloro-4-fluorophenyl)amino)-7-((tetrahydrofuran-3-yl)oxy)quinazolin-6-yl)-2-(4-(piperidin-1-ylmethyl)benzylidene)hydrazine-1-carboxamide]: the figures for the IC50 in the experiment with HepG2 cells, with A549 cells and with MCF-7 cells were 3.13 ± 0.45 µM, 2.25 ± 0.32 µM and 4.3 ± 0.63 µM, respectively.

As to `O=C(N/N=C/c1ccc(CN2CCOCC2)cc1)Nc1cc2c(Nc3ccc(F)c(Cl)c3)ncnc2cc1O[C@H]1CCOC1` [Compound 29, (S,E)-N-(4-((3-chloro-4-fluorophenyl)amino)-7-((tetrahydrofuran-3-yl)oxy)quinazolin-6-yl)-2-(4-(morpholinomethyl)benzylidene)hydrazine-1-carboxamide], the IC50 in the experiment with HepG2 cells, in the experiment on A549 cells and in the experiment on MCF-7 cells was > 100 µM in each case.

With `CN1CCN(Cc2ccc(/C=N/NC(=O)Nc3cc4c(Nc5ccc(F)c(Cl)c5)ncnc4cc3O[C@H]3CCOC3)cc2)CC1` [Compound 30, (S,E)-N-(4-((3-chloro-4-fluorophenyl)amino)-7-((tetrahydrofuran-3-yl)oxy)quinazolin-6-yl)-2-(4-((4-methylpiperazin-1-yl)methyl)benzylidene)hydrazine-1-carboxamide], the IC50 in the experiment on HepG2 cells amounted to 17.5 ± 1.62 µM; in the experiment on A549 cells it was 24.9 ± 1.66 µM; in the experiment on MCF-7 cells, 21 ± 1.68 µM.

As to `CCN(CC)CCCOc1ccc(/C=N/NC(=O)Nc2cc3c(Nc4ccc(F)c(Cl)c4)ncnc3cc2O[C@H]2CCOC2)cc1` [Compound 50, (S,E)-N-(4-((3-chloro-4-fluorophenyl)amino)-7-((tetrahydrofuran-3-yl)oxy)quinazolin-6-yl)-2-(4-(3-(diethylamino)propoxy)benzylidene)hydrazine-1-carboxamide], the IC50 in the experiment on HepG2 cells was 1.08 ± 0.17 µM; in the experiment on A549 cells, 1.11 ± 0.14 µM; in the experiment with MCF-7 cells, 1.23 ± 0.37 µM.

For `O=C(N/N=C/c1ccc(OCCCN2CCCC2)cc1)Nc1cc2c(Nc3ccc(F)c(Cl)c3)ncnc2cc1O[C@H]1CCOC1` [Compound 51, (S,E)-N-(4-((3-chloro-4-fluorophenyl)amino)-7-((tetrahydrofuran-3-yl)oxy)quinazolin-6-yl)-2-(4-(3-(pyrrolidin-1-yl)propoxy)benzylidene)hydrazine-1-carboxamide], the values for the IC50 in the experiment on HepG2 cells, in the experiment with A549 cells and with MCF-7 cells were 17 ± 1.04 µM, 33.8 ± 1.14 µM and 28.5 ± 1.27 µM, respectively.

As to `O=C(N/N=C/c1ccc(OCCCN2CCCCC2)cc1)Nc1cc2c(Nc3ccc(F)c(Cl)c3)ncnc2cc1O[C@H]1CCOC1` [Compound 52, (S,E)-N-(4-((3-chloro-4-fluorophenyl)amino)-7-((tetrahydrofuran-3-yl)oxy)quinazolin-6-yl)-2-(4-(3-(piperidin-1-yl)propoxy)benzylidene)hydrazine-1-carboxamide], the figures for the IC50 in the experiment on HepG2 cells, with A549 cells and with MCF-7 cells were 2.28 ± 0.26 µM, 4.65 ± 0.39 µM and 2.56 ± 0.46 µM, respectively.

On to `O=C(N/N=C/c1ccc(OCCCN2CCOCC2)cc1)Nc1cc2c(Nc3ccc(F)c(Cl)c3)ncnc2cc1O[C@H]1CCOC1` [Compound 53, (S,E)-N-(4-((3-chloro-4-fluorophenyl)amino)-7-((tetrahydrofuran-3-yl)oxy)quinazolin-6-yl)-2-(4-(3-morpholinopropoxy)benzylidene)hydrazine-1-carboxamide], for which the IC50 in the experiment on HepG2 cells, in the experiment with A549 cells and in the experiment with MCF-7 cells was > 100 µM in each case.

Consider `CN1CCN(CCCOc2ccc(/C=N/NC(=O)Nc3cc4c(Nc5ccc(F)c(Cl)c5)ncnc4cc3O[C@H]3CCOC3)cc2)CC1` [Compound 54, (S,E)-N-(4-((3-chloro-4-fluorophenyl)amino)-7-((tetrahydrofuran-3-yl)oxy)quinazolin-6-yl)-2-(4-(3-(4-methylpiperazin-1-yl)propoxy)benzylidene)hydrazine-1-carboxamide], for which the results for the IC50 in the experiment on HepG2 cells, with A549 cells and with MCF-7 cells were 41.2 ± 2.04 µM, 40 ± 2.14 µM and 38.4 ± 1.26 µM, respectively.

What is called IC50 is the concentration needed to halve the response being measured.
